Measurements taken from ChEMBL document CHEMBL1201862, “PubChem BioAssay data set” (2004).
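All cell lines were grown in 96-well plates and treated with compound for 48 hours. Here, GI50 denotes the concentration required for 50% inhibition of growth.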 Active and inactive are the calls of the source. Cut-off read from the data, not from the text of the source: active = GI50 up to about 1.1 µM and inactive = higher.

Legend:
Assay in all cases: DTP human tumour cell line panel, 48 h
A498 = tested on: A498
A549 = tested on: A549
ACHN = tested on: ACHN
CAKI-1 = tested on: CAKI-1
HCT-116 = tested on: HCT-116
HT-29 = tested on: HT-29
KM12 = tested on: KM12
LOX IMVI = tested on: LOX IMVI
MCF7 = tested on: MCF7
NCI-H226 = tested on: NCI-H226
OVCAR-3 = tested on: OVCAR-3
OVCAR-8 = tested on: OVCAR-8
SK-MEL-28 = tested on: SK-MEL-28
SK-MEL-2 = tested on: SK-MEL-2
SK-MEL-5 = tested on: SK-MEL-5
SK-OV-3 = tested on: SK-OV-3
SN12C = tested on: SN12C
T47D = tested on: T47D
HOP-92 = tested on: HOP-92
SNB-75 = tested on: SNB-75

SMILES: O=[N+]([O-])C(=C1NCCN1)C(Cl)=C(Cl)Cl
- GI50 (A498): > 100 µM (inactive)
- GI50 (A549): > 100 µM (inactive)
- GI50 (ACHN): > 100 µM (inactive)
- GI50 (CAKI-1): > 100 µM (inactive)
- GI50 (HCT-116): > 100 µM (inactive)
- GI50 (HT-29): > 100 µM (inactive)
- GI50 (KM12): > 100 µM (inactive)
- GI50 (LOX IMVI): > 100 µM (inactive)
- GI50 (MCF7): > 100 µM (inactive)
- GI50 (NCI-H226): > 100 µM (inactive)
- GI50 (OVCAR-3): > 100 µM (inactive)
- GI50 (OVCAR-8): > 100 µM (inactive)
- GI50 (SK-MEL-28): > 100 µM (inactive)
- GI50 (SK-MEL-2): > 100 µM (inactive)
- GI50 (SK-MEL-5): > 100 µM (inactive)
- GI50 (SK-OV-3): > 100 µM (inactive)
- GI50 (SN12C): > 100 µM (inactive)
- GI50 (T47D): > 100 µM (inactive)

SMILES: COc1cc2c(c(O)c1OC)C(=O)C(Cc1ccc(O)cc1)CO2 (configuration not stated)
- GI50 (A549): 23.8 µM (inactive)
- GI50 (ACHN): 42.5 µM (inactive)
- GI50 (CAKI-1): 23 µM (inactive)
- GI50 (HCT-116): 25.3 µM (inactive)
- GI50 (HOP-92): 30.3 µM (inactive)
- GI50 (HT-29): 75.7 µM (inactive)
- GI50 (KM12): 23.4 µM (inactive)
- GI50 (LOX IMVI): 34.1 µM (inactive)
- GI50 (MCF7): 2.33 µM (inactive)
- GI50 (NCI-H226): 37.9 µM (inactive)
- GI50 (OVCAR-3): 9.4 µM (inactive)
- GI50 (OVCAR-8): 38.2 µM (inactive)
- GI50 (SK-MEL-28): 46.8 µM (inactive)
- GI50 (SK-MEL-2): 30.8 µM (inactive)
- GI50 (SK-MEL-5): 26.5 µM (inactive)
- GI50 (SK-OV-3): 18.4 µM (inactive)
- GI50 (SN12C): 36.3 µM (inactive)
- GI50 (SNB-75): 18.4 µM (inactive)
- GI50 (T47D): 29 µM (inactive)

SMILES: O=C1C=CC(=O)c2c1ccc1c3ccccc3n(CCCCCCCCn3c4ccccc4c4ccc5c(c43)C(=O)C=CC5=O)c21
- GI50 (A498): > 100 µM (inactive)
- GI50 (A549): > 100 µM (inactive)
- GI50 (ACHN): > 100 µM (inactive)
- GI50 (CAKI-1): > 100 µM (inactive)
- GI50 (HCT-116): > 100 µM (inactive)
- GI50 (HT-29): > 100 µM (inactive)
- GI50 (KM12): > 100 µM (inactive)
- GI50 (LOX IMVI): > 100 µM (inactive)
- GI50 (MCF7): > 100 µM (inactive)
- GI50 (NCI-H226): > 100 µM (inactive)
- GI50 (OVCAR-3): > 100 µM (inactive)
- GI50 (OVCAR-8): > 100 µM (inactive)
- GI50 (SK-MEL-28): > 100 µM (inactive)
- GI50 (SK-MEL-2): > 100 µM (inactive)
- GI50 (SK-MEL-5): > 100 µM (inactive)
- GI50 (SK-OV-3): > 100 µM (inactive)
- GI50 (SN12C): > 100 µM (inactive)
- GI50 (T47D): > 100 µM (inactive)

SMILES: Cc1ccc(-c2cc(N)n(-c3nc4c([nH]3)c(=O)n(C)c(=O)n4C)n2)cc1
- GI50 (A498): 4.86 µM (inactive)
- GI50 (A549): 4.68 µM (inactive)
- GI50 (ACHN): 1.92 µM (inactive)
- GI50 (CAKI-1): 0.778 µM (active)
- GI50 (HCT-116): 2.69 µM (inactive)
- GI50 (HOP-92): 12.8 µM (inactive)
- GI50 (HT-29): 4.53 µM (inactive)
- GI50 (KM12): 4.88 µM (inactive)
- GI50 (MCF7): 6.78 µM (inactive)
- GI50 (NCI-H226): 6.71 µM (inactive)
- GI50 (OVCAR-3): 4.55 µM (inactive)
- GI50 (OVCAR-8): 3.37 µM (inactive)
- GI50 (SK-MEL-28): 6.14 µM (inactive)
- GI50 (SK-MEL-2): 6.64 µM (inactive)
- GI50 (SK-MEL-5): 3.36 µM (inactive)
- GI50 (SK-OV-3): 3.3 µM (inactive)
- GI50 (SN12C): 5.32 µM (inactive)
- GI50 (T47D): 4.76 µM (inactive)

SMILES: Cc1cnc2[nH]c(-c3ccccc3)cc(=O)c2c1
- GI50 (A549): 0.0585 µM (active)
- GI50 (ACHN): 0.0608 µM (active)
- GI50 (CAKI-1): < 0.0186 µM (active)
- GI50 (HCT-116): < 0.0155 µM (active)
- GI50 (HOP-92): 0.065 µM (active)
- GI50 (HT-29): 0.0101 µM (active)
- GI50 (KM12): 0.0138 µM (active)
- GI50 (LOX IMVI): 0.0351 µM (active)
- GI50 (MCF7): 0.164 µM (active)
- GI50 (NCI-H226): 0.122 µM (active)
- GI50 (OVCAR-3): 0.0123 µM (active)
- GI50 (OVCAR-8): 0.04 µM (active)
- GI50 (SK-MEL-28): 0.0363 µM (active)
- GI50 (SK-MEL-2): 0.0391 µM (active)
- GI50 (SK-MEL-5): < 0.01 µM (active)
- GI50 (SK-OV-3): 0.0284 µM (active)
- GI50 (SN12C): 0.0527 µM (active)
- GI50 (SNB-75): 0.0122 µM (active)
- GI50 (T47D): > 100 µM (inactive)
